This note sets out measurements from article PMC9975698, “Hyperoside alleviates toxicity of β-amyloid via endoplasmic reticulum-mitochondrial calcium signal transduction cascade in APP/PS1 double transgenic Alzheimer's disease mice” (Redox Biology, 2023).

Data set [1] in a line: Pharmacokinetics in brain after IV or IN administration. The settings on record: 20 mg/kg, mice; for Tmax / k el / half-life: mouse, brain; for k el: read-out: Brain Ke (converted); for half-life: read-out: Brain t1/2 (converted). The data set is classed as in vivo. How it is done:
After tail vein injection or nasal administration, blood was collected at 5, 15 and 30 min, 1, 2, 4, 8, 12, 24, 48, 72, 120 and 168 h, for immediate centrifugation at 14,000 rpm for 5 min. The serum was harvested and stored at −20 °C until further processing. Brain tissue was collected and was thoroughly rinsed in saline to eliminate blood and blotted dry with filter paper. Each tissue sample was homogenized in saline (1:5, w/v) and stored at −20 °C until analysis. 50 μL of serum or 100 μL of brain tissue was put in a 1.5 mL EP tube, followed by the addition of 20 μL of internal standard solution (10 μM ISO). The protein was precipitated with 1 mL of ethyl acetate, vortexed for 5 min and centrifuged at 20,000 g (4 °C and 10 min). The supernatant solution was nitrogen blown to dry and re-suspended with 100 μL of 50% acetonitrile for centrifugation again. The supernatant was taken for analysis by using LC-MS/MS. HYP content was quantified using UHPLC-MS/MS system, which includes Agilent 1290 Infinity UHPLC, and Agilent 6460 Triple Quadrupole, equipped with an electrospray ionization interface used to generate positive ions for the determination of HYP. The compounds were analyzed by using the Agilent Zorbax Eclipse Plus C-18 column with a particle size of […] (flow rate: 0.35 mL/min). The mobile phase was set as follows: mobile phase A (0.1% formic acid in water) and mobile phase B (0.1% formic acid in ACN): 0–3 min, 10–30% B; 3–4 min, 70% B; 4–5 min, 30–70% B; 5–6 min, 70-10% B. The column and auto-sampler temperature were maintained at 30 °C and 4 °C, respectively. Data were analyzed by using Agilent MassHunter Workstation software B.01.03. The gas temperature was set at 300 °C with a flow rate of 11 L/min. Gases were set at 30 psi for the nebulizer, capillary, at 4000 V. For the HYP, the fragment was 170. The collision energy was set at 30; The mass transitions were as follows based on multiple reaction monitoring: m/z 464.38 → 299.9. For the Isorhamnetin (ISO), the fragment was 150. The collision energy was set at 30; The mass transitions were as follows based on multiple reaction monitoring: m/z 315.4 → 300.1, The measurements of HYP were done using the standard and linear least-squares regression curve.

For data set [2], the target named is T1, β-secretase (Mus musculus, UniProt P56818).
T1 construct: 50 μL supernatant (cell lysate) was transferred to each well in the 96-well plate; endogenous in cells; host or cells: HT22 cells
In words: BACE-1 inhibition assay (β-secretase activity in HT22 cell lysate). The format is cell-based. To be noted: HT22 cells, HYP 20–80 μM, 24 h. Here is the method:
The assay was performed in a 96-well flat-bottom white plate using β-Secretase Activity Fluorometric Assay Kit (Biovision, CA, USA). To begin, HT22 cells were treated with HYP (20–80 μM) for 24 h and then collected by centrifugation with ice-cold extraction buffer added for homogenization. After centrifugation, 50 μL supernatant (cell lysate) was transferred to each well in the 96-well plate. 2 μL of active β-secretase (protein concentration: 4 μg/μL) was added to the 50 μL of extraction buffer as the positive control. For negative control, 2 μL of the β-secretase inhibitor was added to the 50 μL of sample well. 2 μL of each of the tested samples were added into each sample well for inhibitory activity evaluation. Following compounds addition, 50 μL of 2X reaction buffer was added with a gentle mix and incubation for 20 min at 37 °C before adding 2 μL of the β-secretase substrate. The plate was then covered and incubated in the dark at 37 °C for 1 h. Samples were then measured in a fluorescent 96-well plate reader (Ex/Em = 345/500 nm). Background readings produced from the substrate without adding secretase were subtracted from all samples.

Data set [3] has as its system APP/PS1 mice. In words: Y-maze test. The data set is classed as in vivo. The settings on record: HYP 20/40/80 mg/kg nasal, every 3 days, after 7 weeks. Here is the method:
All animal care and experimental procedures were performed in accordance with the “Institutional Animal Care and User Committee Guidelines” of the Macau University of Science and Technology. APP/PSEN1 (APP/PS1) mice (N000175) were purchased from the Nanjing Institute of Biomedical Sciences, Nanjing University, China, weighing 25 ± 5 g. The animals were housed in a temperature-controlled room with a 12 h light/dark cycle and given ad libitum food and water. Male mice were randomly divided into the following 6 experimental groups. (a) wild-type group (n = 6), (b) APP/PS1 group (n = 6), (c) HYP (20 mg/kg group) (n = 7), (d) HYP (40 mg/kg) group (n = 8), (e) HYP (80 mg/kg) group (n = 8) and (f) memantine (MEM) (10 mg/kg) positive control group (n = 8). HYP was dissolved in the solvent containing 10% DMSO, 40% PEG300 and 5% Tween-80 in PBS, and administrated via nasal injection for every 3 days with a volume of 0.5 μL/g of body weight for 8 consecutive weeks. Y-maze tests assess cognitive changes, short-term spatial working memory (by spontaneous alternation), and exploratory activity (by total number of arm choices) of mice. […] The number of total arm choices and sequence of arm choices were recorded. The percentage of alternation can be calculated as the ratio of total number of alternations / the number of arms entered x 100%. […]

Where two headings read alike, the source gives them in different places.

T1 sequence (P56818 46-501): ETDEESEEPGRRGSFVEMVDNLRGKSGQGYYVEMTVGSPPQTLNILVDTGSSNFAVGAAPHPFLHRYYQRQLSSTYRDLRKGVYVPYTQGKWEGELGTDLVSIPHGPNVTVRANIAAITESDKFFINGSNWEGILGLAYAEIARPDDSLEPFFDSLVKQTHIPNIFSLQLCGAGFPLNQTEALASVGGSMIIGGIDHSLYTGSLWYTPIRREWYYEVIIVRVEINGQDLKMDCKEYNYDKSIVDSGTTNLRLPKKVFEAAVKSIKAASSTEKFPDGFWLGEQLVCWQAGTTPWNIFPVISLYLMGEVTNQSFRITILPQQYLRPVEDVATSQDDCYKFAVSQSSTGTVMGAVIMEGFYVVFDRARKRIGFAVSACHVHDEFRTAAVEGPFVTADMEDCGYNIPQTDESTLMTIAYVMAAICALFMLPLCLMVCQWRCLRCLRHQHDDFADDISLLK

Turning to `O=c1c(O[C@@H]2O[C@H](CO)[C@H](O)[C@H](O)[C@H]2O)c(-c2ccc(O)c(O)c2)oc2cc(O)cc(O)c12` [HYP, Quercetin-3-O-β-D-galactopyranoside], in data set [1] (IN), the “Brain Cmax” value turned out to be 12.76 ± 1.56 ng/m and the “Brain F (AUCIN/AUCIV ratio)” value stood at 603.72%. Besides, in data set [1] (IV), the “Brain Cmax” value turned out to be 12.82 ± 0.40 ng/mL, the Tmax came out at 2 h, the k el is 1.94e-05 s⁻¹ and the half-life was 10.5 ± 1.63 h. Also, in data set [1] (inhaled or intranasal, IN), the Tmax came to 1 h, the k el is 5.56e-06 s⁻¹ and the half-life is 70.1 ± 5.04 h. Besides, the β-secretase activity entry in data set [2] is listed as “inhibited β-secretase activity”. The “spatial working memory (Y-maze alternation)” value in data set [3] is “resumed to a level comparable to WT mice group”.
